From patent US20170176412A1, “METHOD FOR PREDICTING OPTION OF DEPRESSION TREATMENT DRUG” (Human Metabolome Technologies Inc., priority 2014, published 2017)

Columns and labels:
[1] = tested on: blood PEA level of depressed patient; assay: Blood PEA level of depressed patients before and after administration of SNRI or SSRI (Example 1); format: in vivo; details: average value; for Blood PEA level After administration: after administration period of about 0.5 to 7 months; for Blood PEA level Before administration: baseline of the drug group, plasma, ion chromatography fluorescent detection
Method: After an informed consent was given to a patient who visited the clinic of the inventors, the patient's blood was collected. The blood PEA level was measured using an ion chromatography fluorescent detection method according to the following procedure. 50 μL of plasma and 450 μL of Milli-Q water were put in an Eppendorf tube and mixed by vortexing. The mixture was transferred to an ultrafiltration filter ([…] 5 kDa cut filter, Millipore Corporation), and subjected to centrifugal filtration (4° C., 9,100×g, 2 hours) until the solution in the filter disappeared. […] As subjects, 30 patients having the blood PEA levels ranging from 0.77 to 2.62 μM were employed. As a depression treatment drug, the SSRI or SNRT shown in Table 3 was administered to the patients. The blood PEA level after the administration was measured in the same procedure as before the administration. Although the administration periods variably depended on the patients, they ranged from about 0.5 to 7 months.

[2] = tested on: blood PEA level of depressed patient; assay: Blood PEA level of depressed patients during continuous administration (Example 2); format: in vivo; details: for Blood PEA level Before administration: before administration in Example 1, patients with continuous administration; for Blood PEA level After continuous administration / Blood PEA level During continuous administration: continuous administration periods about 6 to 24 months
Method: Among the patients to whom the depression treatment drug was administered in Example 1, the patients who received continuous administration also after the period of Example 1 were investigated. The number of patients who received continuous administration of the SNRI was nine. On the other hand, the number of patients who received continuous administration of the SSRI was five. Although the continuous administration periods (including the administration period in Example 1) variably depended on the patients, they ranged from about 6 to 24 months. The blood PEA levels in the course of and after the end of the continuous administration of these patients were measured in the same procedure as in Example 1.
• t-test: Significant difference test of blood PEA level after continuous administration with respect to that before administration

Compound | Blood PEA level After administration [1] [µM] | Blood PEA level Before administration [1] [µM] | Blood PEA level Before administration [2] [µM] | Blood PEA level After continuous administration [2] [µM] | Blood PEA level During continuous administration [2] [µM]
Fc1ccc([C@@H]2CCNC[C@H]2COc2ccc3c(c2)OCO3)cc1 [Paroxetine, paroxetine] | 1.21 | 1.42 | – | – | –
CN[C@H]1CC[C@@H](c2ccc(Cl)c(Cl)c2)c2ccccc21 [Sertraline, sertraline] | 1.26 | 1.39 | 1.39 | 1.47 | –
CNCC[C@H](Oc1cccc2ccccc12)c1cccs1 [Duloxetine, duloxetine] | 1.46 | 1.10 | 1.11 | 1.82 | 1.47
CN(C)CCC[C@@]1(c2ccc(F)cc2)OCc2cc(C#N)ccc21 [Escitalopram, escitalopram] | 1.22 | – | – | 1.73 | –
CCN(CC)C(=O)C1(c2ccccc2)CC1CN (stereo not drawn) [Milnacipran, milnacipran] | 1.66 | 1.27 | 1.44 | 1.94 | 1.71
